ChEMBL document CHEMBL1141537, “Design and synthesis of dihydroindazolo[5,4-a]pyrrolo[3,4-c]carbazole oximes as potent dual inhibitors of TIE-2 and VEGF-R2 receptor tyrosine kinases” (Bioorg Med Chem Lett, 2008)
Blank lines part the entries; values can stand above or below the compound they belong to.

Legend:
Angiopoietin-1 receptor = Angiopoietin-1 receptor (Homo sapiens, UniProt Q02763); test: Inhibition of human recombinant TIE2 by HTRF assay
[1] = Half life in rat at 5 mg/kg, po; format: ADME, organism-based; set-up: dose 5 mg/kg, route oral; details: in vivo
Rattus norvegicus = species on record: Rattus norvegicus; test: Ex vivo antiangiogenic activity in rat aortic ring explant assessed as inhibition of microvessel outgrowth after 10 days; format: functional; details: Aorta, 240 h
Mus musculus = test: Toxicity in A375 cells xenografted mouse melanoma model assessed as mortality; format: organism-based, A-375; details: in vivo
[2] = AUC (0 to infinity) in rat at 5 mg/kg, po; format: ADME, organism-based; set-up: time infinity, dose 5 mg/kg, route oral; details: plasma
[3] = molecular target: Proto-oncogene tyrosine-protein kinase Src (Homo sapiens, UniProt P12931); test: Inhibition of c-src
[4] = Half life in rat at 1 mg/kg, iv; format: ADME, organism-based; set-up: dose 1 mg/kg, route intravenous; details: in vivo
HUVEC [5] = test: Cytotoxicity against HUVEC cells; format: cell-based; details: human
A-375 [6] = test: Antitumor activity against human A375 cells xenografted mouse assessed as partial tumor regression at 10 mg/kg, po bid relative to control; format: functional
[7] = molecular target: Vascular endothelial growth factor receptor 1 (Homo sapiens, UniProt P17948); test: Inhibition of VEGFR1
[8] = molecular target: Vascular endothelial growth factor receptor 2 (Homo sapiens, UniProt P35968); test: Inhibition of human recombinant VEGFR2 by HTRF assay
[9] = Cmax in rat at 5 mg/kg, po; format: ADME, organism-based; set-up: dose 5 mg/kg, route oral; details: in vivo
[10] = Clearance in rat at 1 mg/kg, iv; format: ADME, organism-based; set-up: dose 1 mg/kg, route intravenous; details: in vivo
[11] = molecular target: Vascular endothelial growth factor receptor 3 (Homo sapiens, UniProt P35916); test: Inhibition of VEGFR3
[12] = Volume of distribution in rat at 1 mg/kg, iv; format: ADME, organism-based; set-up: dose 1 mg/kg, route intravenous; details: in vivo
[13] = molecular target: Epidermal growth factor receptor (Homo sapiens, UniProt P00533); test: Inhibition of EGFR
Insulin receptor = Insulin receptor (Homo sapiens, UniProt P06213); test: Inhibition of IR
A-375 [14] = test: Antitumor activity against human A375 cells xenografted mouse assessed as tumor growth inhibition at 10 mg/kg, po bid relative to control; format: functional; set-up: scale not given: the % may be the effect or the level left
HUVEC [15] = test: Inhibition of VEGF-induced HUVEC cells capillary tube formation relative to control; format: functional, cell-based; details: Homo sapiens
A-375 [16] = test: Cytotoxicity against human A375 cells; format: functional, cell-based
[17] = Oral bioavailability in rat at 5 mg/kg; format: ADME, organism-based; details: in vivo
[18] = AUC (0 to infinity) in rat at 1 mg/kg, iv; format: ADME, organism-based; set-up: time infinity, dose 1 mg/kg, route intravenous; details: plasma

Sequence of Angiopoietin-1 receptor (Q02763 whole entry): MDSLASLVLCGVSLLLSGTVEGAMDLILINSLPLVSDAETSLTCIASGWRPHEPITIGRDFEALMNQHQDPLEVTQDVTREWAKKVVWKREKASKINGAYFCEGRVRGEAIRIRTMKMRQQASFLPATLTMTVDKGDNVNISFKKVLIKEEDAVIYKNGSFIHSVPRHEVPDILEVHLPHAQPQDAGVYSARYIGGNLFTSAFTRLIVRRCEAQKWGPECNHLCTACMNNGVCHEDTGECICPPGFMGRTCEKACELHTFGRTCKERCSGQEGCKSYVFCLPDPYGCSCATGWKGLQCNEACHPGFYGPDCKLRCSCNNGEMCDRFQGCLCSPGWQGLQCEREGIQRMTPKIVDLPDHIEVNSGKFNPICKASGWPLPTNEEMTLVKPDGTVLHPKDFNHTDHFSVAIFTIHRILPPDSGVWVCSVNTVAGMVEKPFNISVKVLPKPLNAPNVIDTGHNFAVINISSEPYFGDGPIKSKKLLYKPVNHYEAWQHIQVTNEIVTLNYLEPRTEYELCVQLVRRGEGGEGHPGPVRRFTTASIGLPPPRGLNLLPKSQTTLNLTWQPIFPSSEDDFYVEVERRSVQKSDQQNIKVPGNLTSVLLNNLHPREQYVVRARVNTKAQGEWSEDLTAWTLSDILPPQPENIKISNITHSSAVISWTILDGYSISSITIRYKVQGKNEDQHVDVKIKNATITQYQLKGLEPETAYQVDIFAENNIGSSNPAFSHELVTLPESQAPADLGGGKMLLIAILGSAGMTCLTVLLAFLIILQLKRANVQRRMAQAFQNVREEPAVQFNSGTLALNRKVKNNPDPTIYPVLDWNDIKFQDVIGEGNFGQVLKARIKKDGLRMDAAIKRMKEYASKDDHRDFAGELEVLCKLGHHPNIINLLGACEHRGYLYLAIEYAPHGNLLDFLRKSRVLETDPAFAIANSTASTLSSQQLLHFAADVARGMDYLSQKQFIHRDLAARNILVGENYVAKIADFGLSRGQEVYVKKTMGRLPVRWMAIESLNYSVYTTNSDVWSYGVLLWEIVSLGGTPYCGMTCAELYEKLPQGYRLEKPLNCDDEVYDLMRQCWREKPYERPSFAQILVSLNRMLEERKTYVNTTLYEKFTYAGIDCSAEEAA
Sequence of Proto-oncogene tyrosine-protein kinase Src (P12931 2-536 limits assumed): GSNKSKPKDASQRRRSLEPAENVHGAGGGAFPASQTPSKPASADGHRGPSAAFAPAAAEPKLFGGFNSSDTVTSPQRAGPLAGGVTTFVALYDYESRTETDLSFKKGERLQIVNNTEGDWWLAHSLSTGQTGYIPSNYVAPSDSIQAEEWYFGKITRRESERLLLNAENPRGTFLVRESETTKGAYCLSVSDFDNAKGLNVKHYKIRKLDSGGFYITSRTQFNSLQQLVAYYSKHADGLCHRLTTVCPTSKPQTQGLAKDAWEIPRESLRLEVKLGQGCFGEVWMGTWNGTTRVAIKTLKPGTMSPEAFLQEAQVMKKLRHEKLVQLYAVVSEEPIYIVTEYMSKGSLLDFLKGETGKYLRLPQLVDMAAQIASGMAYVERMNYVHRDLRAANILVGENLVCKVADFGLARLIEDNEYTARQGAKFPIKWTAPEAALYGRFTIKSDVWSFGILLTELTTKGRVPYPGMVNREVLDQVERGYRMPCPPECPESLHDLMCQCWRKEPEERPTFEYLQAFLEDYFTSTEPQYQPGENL
Sequence of Insulin receptor (P06213 28-758 limits assumed): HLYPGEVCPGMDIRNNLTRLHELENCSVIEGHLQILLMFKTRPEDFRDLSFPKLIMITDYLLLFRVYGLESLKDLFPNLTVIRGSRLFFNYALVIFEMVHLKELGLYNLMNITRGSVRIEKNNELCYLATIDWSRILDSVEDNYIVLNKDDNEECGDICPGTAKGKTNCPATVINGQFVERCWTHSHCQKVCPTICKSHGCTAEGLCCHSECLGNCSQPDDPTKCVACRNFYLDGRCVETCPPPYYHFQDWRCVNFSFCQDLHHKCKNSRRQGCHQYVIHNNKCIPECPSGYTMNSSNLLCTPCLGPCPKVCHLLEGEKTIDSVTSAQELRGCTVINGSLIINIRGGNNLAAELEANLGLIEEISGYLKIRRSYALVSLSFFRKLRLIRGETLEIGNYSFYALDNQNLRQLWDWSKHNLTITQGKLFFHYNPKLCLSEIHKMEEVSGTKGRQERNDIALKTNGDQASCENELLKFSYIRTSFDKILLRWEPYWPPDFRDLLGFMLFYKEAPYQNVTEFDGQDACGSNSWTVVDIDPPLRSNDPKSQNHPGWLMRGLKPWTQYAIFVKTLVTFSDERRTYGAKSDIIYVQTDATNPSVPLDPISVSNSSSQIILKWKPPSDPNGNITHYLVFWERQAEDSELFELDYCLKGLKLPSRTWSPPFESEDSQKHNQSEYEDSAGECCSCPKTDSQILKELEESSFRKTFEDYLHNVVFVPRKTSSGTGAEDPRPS
Sequence of Insulin receptor (P06213 763-1382 limits assumed): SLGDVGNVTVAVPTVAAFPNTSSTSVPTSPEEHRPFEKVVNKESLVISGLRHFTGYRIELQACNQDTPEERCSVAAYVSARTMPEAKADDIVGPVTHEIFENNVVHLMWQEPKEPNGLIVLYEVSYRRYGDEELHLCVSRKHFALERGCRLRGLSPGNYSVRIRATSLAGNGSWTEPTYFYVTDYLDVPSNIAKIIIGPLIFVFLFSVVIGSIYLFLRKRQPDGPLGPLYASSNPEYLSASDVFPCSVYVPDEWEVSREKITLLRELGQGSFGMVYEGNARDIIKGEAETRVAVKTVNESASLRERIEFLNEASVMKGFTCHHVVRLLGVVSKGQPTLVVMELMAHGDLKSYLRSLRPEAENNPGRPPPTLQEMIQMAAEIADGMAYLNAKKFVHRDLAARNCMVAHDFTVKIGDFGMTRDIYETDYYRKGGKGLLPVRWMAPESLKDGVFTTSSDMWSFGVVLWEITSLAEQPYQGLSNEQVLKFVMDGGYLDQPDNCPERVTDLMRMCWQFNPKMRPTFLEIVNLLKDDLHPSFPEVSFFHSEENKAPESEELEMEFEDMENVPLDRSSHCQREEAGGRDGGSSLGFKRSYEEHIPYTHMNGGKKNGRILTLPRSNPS
Sequence of Vascular endothelial growth factor receptor 2 (P35968 whole entry): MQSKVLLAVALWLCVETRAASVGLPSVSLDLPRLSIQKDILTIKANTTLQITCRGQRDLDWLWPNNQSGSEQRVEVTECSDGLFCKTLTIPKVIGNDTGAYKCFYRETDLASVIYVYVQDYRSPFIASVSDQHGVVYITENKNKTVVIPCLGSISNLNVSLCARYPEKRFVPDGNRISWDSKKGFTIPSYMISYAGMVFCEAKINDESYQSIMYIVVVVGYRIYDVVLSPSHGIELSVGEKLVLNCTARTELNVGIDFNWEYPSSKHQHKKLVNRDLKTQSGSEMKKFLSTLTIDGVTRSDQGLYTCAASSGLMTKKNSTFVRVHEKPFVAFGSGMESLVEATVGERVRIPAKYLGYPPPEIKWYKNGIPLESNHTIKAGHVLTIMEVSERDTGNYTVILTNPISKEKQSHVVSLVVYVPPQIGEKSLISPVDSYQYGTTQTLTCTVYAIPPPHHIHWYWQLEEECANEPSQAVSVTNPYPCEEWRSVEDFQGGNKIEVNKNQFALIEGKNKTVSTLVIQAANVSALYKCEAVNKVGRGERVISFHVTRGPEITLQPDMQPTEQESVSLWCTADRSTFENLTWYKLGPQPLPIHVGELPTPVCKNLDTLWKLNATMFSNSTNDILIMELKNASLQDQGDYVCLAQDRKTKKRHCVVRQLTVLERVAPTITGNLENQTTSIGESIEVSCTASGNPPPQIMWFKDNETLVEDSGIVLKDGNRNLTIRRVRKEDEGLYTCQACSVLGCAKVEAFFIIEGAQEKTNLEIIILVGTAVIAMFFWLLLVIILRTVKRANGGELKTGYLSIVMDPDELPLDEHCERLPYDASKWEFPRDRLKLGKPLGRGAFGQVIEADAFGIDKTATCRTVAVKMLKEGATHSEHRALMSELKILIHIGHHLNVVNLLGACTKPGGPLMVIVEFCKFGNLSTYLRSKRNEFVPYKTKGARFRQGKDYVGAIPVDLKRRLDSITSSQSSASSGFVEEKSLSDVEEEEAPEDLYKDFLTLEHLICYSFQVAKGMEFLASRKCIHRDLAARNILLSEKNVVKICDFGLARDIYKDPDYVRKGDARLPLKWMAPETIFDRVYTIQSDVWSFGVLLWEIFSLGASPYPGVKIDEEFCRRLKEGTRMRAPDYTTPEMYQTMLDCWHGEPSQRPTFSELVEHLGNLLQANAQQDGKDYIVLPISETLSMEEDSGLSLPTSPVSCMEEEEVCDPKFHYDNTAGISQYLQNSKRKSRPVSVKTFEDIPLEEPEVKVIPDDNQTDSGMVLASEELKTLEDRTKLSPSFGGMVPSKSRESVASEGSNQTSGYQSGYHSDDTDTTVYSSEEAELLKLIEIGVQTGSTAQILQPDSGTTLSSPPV

SMILES: CCCCn1c2ccc(/C(C)=N/OC)cc2c2c3c(c4c(c21)CCc1nn(C)cc1-4)C(=O)NC3
IC50 (Angiopoietin-1 receptor): 0.108 µM

SMILES: CO/N=C/c1ccc2[nH]c3c4c(c5c(c3c2c1)CNC5=O)-c1cn(C)nc1CC4
IC50 (Angiopoietin-1 receptor): 0.148 µM

SMILES: CO/N=C(/c1ccc2[nH]c3c4c(c5c(c3c2c1)CNC5=O)-c1cn(C)nc1CC4)C(C)C
IC50 (Angiopoietin-1 receptor): 0.264 µM

SMILES: CO/N=C(\C)c1ccc2c(c1)c1c3c(c4c(c1n2CC(C)C)CCc1nn(C)cc1-4)C(=O)NC3
half-life [1]: 6.5 h
EC50 (Rattus norvegicus): 0.003 µM
Activity (Mus musculus): Non-toxic
AUC(0-inf) [2]: 9.05 µg·h/mL
IC50 [3]: 0.043 µM
half-life [4]: 1.4 h
Activity (HUVEC [5]): Non-toxic
Activity (A-375 [6]): 38%
IC50 [7]: 0.008 µM
IC50 [8]: 0.007 µM
Cmax [9]: 0.874 µg/mL
clearance [10]: 0.39 L/h/kg
IC50 [11]: 0.01 µM
Vd [12]: 0.8 L/kg
IC50 [13]: > 1 µM
IC50 (Insulin receptor): > 1 µM
Activity (A-375 [14]): 80%
EC50 (HUVEC [15]): 0.001 µM
EC50 (A-375 [16]): 0.07 µM
bioavailability [17]: 66%
IC50 (Angiopoietin-1 receptor): 0.03 µM
AUC(0-inf) [18]: 2.76 µg·h/mL

SMILES: CCO/N=C/c1ccc2[nH]c3c4c(c5c(c3c2c1)CNC5=O)-c1cn(C)nc1CC4
IC50 (Angiopoietin-1 receptor): 0.264 µM

SMILES: CCn1c2ccc(/C(C)=N/OC)cc2c2c3c(c4c(c21)CCc1nn(C)cc1-4)C(=O)NC3
IC50 (Angiopoietin-1 receptor): 0.3 µM

SMILES: CO/N=C(\C)c1ccc2c(c1)c1c3c(c4c(c1n2C)CCc1nn(C)cc1-4)C(=O)NC3
IC50 (Angiopoietin-1 receptor): 0.347 µM

SMILES: C/C(=N\OC(C)(C)C)c1ccc2[nH]c3c4c(c5c(c3c2c1)CNC5=O)-c1cn(C)nc1CC4
IC50 (Angiopoietin-1 receptor): 0.093 µM

SMILES: Cn1cc2c(n1)CCc1c-2c2c(c3c1[nH]c1ccccc13)CNC2=O
IC50 (Angiopoietin-1 receptor): 1.3 µM

SMILES: CO/N=C(\C)c1ccc2c(c1)c1c3c(c4c(c1n2C(C)C)CCc1nn(C)cc1-4)C(=O)NC3
IC50 (Angiopoietin-1 receptor): 0.097 µM

More lines, in order of falling IC50 (Angiopoietin-1 receptor), values ahead:

IC50 (Angiopoietin-1 receptor): 0.092 µM
SMILES: CCO/N=C(/c1ccc2[nH]c3c4c(c5c(c3c2c1)CNC5=O)-c1cn(C)nc1CC4)C(C)C

IC50 (Angiopoietin-1 receptor): 0.071 µM
SMILES: CO/N=C(\C)c1ccc2[nH]c3c4c(c5c(c3c2c1)CNC5=O)-c1cn(C)nc1CC4

IC50 (Angiopoietin-1 receptor): 0.066 µM
SMILES: C/C(=N\OC(C)C)c1ccc2c(c1)c1c3c(c4c(c1n2C(C)C)CCc1nn(C)cc1-4)C(=O)NC3

IC50 (Angiopoietin-1 receptor): 0.052 µM
SMILES: C/C(=N\OC(C)C)c1ccc2c(c1)c1c3c(c4c(c1n2CC(C)C)CCc1nn(C)cc1-4)C(=O)NC3

IC50 (Angiopoietin-1 receptor): 0.046 µM
SMILES: C/C(=N\OCC(C)C)c1ccc2c(c1)c1c3c(c4c(c1n2C(C)C)CCc1nn(C)cc1-4)C(=O)NC3

IC50 (Angiopoietin-1 receptor): 0.045 µM
SMILES: CCn1c2ccc(/C(C)=N/OCC(C)C)cc2c2c3c(c4c(c21)CCc1nn(C)cc1-4)C(=O)NC3

IC50 (Angiopoietin-1 receptor): 0.044 µM
SMILES: C/C(=N\O)c1ccc2[nH]c3c4c(c5c(c3c2c1)CNC5=O)-c1cn(C)nc1CC4

IC50 (Angiopoietin-1 receptor): 0.03 µM
SMILES: CCCn1c2ccc(/C(C)=N/OC)cc2c2c3c(c4c(c21)CCc1nn(C)cc1-4)C(=O)NC3

IC50 (Angiopoietin-1 receptor): 0.028 µM
SMILES: C/C(=N\OC(C)C)c1ccc2[nH]c3c4c(c5c(c3c2c1)CNC5=O)-c1cn(C)nc1CC4

half-life [1]: 3.2 h
AUC(0-inf) [2]: 3.61 µg·h/mL
IC50 [3]: 0.014 µM
half-life [4]: 2 h
IC50 [8]: 0.004 µM
Cmax [9]: 0.637 µg/mL
clearance [10]: 0.444 L/h/kg
Vd [12]: 1.3 L/kg
IC50 [13]: > 1 µM
IC50 (Insulin receptor): > 1 µM
bioavailability [17]: 31%
IC50 (Angiopoietin-1 receptor): 0.026 µM
AUC(0-inf) [18]: 2.3 µg·h/mL
SMILES: CCO/N=C(\C)c1ccc2c(c1)c1c3c(c4c(c1n2C(C)C)CCc1nn(C)cc1-4)C(=O)NC3

IC50 (Angiopoietin-1 receptor): 0.025 µM
SMILES: CCO/N=C(\C)c1ccc2c(c1)c1c3c(c4c(c1n2CC(C)C)CCc1nn(C)cc1-4)C(=O)NC3

IC50 (Angiopoietin-1 receptor): 0.023 µM
SMILES: C/C(=N\OCC(C)C)c1ccc2c(c1)c1c3c(c4c(c1n2CC(C)C)CCc1nn(C)cc1-4)C(=O)NC3

IC50 (Angiopoietin-1 receptor): 0.023 µM
SMILES: CCO/N=C(\C)c1ccc2[nH]c3c4c(c5c(c3c2c1)CNC5=O)-c1cn(C)nc1CC4

IC50 (Angiopoietin-1 receptor): 0.01 µM
SMILES: C/C(=N\OCC(C)C)c1ccc2[nH]c3c4c(c5c(c3c2c1)CNC5=O)-c1cn(C)nc1CC4

IC50 (Angiopoietin-1 receptor): 0.002 µM
SMILES: COc1ccc(-c2oc3ncnc(N)c3c2-c2ccc(NC(=O)Nc3c(F)cccc3C(F)(F)F)cc2)cc1
